Measured values as given in patent US20040152745A1, “Dipeptidyl peptidase IV inhibitors and methods of making and using dipeptidyl peptidase IV inhibitors” (Guilford Pharmaceuticals, Inc., priority 1999, published 2004).

Tested on: organotypic spinal motor neurons
Experiment: organotypic spinal motor neuron / THA neuroprotection assay
Format: cell-based, Sprague-Dawley rat
Conditions: exposure of neurons with THA alone
Protocol: Each experiment consists of two 6-well plates with 5 slices from 4 different animals per well. Media changes are performed every 3 to 4 days. Cultures are treated with THA [L(−)-threo-3-hydroxyaspartic acid; Tocris Cookson Inc., Ballwin, Mo.] at 200 μM+compound (10 μM) after one week in culture. The control is an untreated sample with 0.1% DMSO as vehicle. The THA control is a THA treated sample with 0.1% DSMO as vehicle. Two wells are used per condition. One media change with new THA and compounds is performed. The experiment is stopped 6 to 8 days following drug treatment (13-15 total days in vitro, DIV) as dictated by visual assessment of lesion, by fixation with 4% paraformaldehyde/0.1 M phosphate buffer for 30 minutes. Slices are permeabilized with 100% cold methanol for 10 minutes. Slices are transferred to staining wells. […]
Quantification of surviving neurons is performed on a Ziess Axiovert microscope. Neuronal survival is determined by observing an intact neuronal cell body with processes located ventrally of the central canal in each hemisphere. […] Each hemisphere is counted individually. The statistics can be performed with StatView software on a minimum of three different experiments per condition and significance should be determined as compared to THA control. The percent of protection can be determined from the average number of living neurons by the following equation: […]

Structure (SMILES): N[C@H](C(=O)O)[C@H](O)C(=O)O [THA, L(−)-threo-3-hydroxyaspartic acid]
- death of the neurons: 55-60%
